Key:
Type in all cases: physicochemical
[1] = PTR-MS real-time headspace release, watermelon flavor model in water (Example 1); set-up: Sample A (PG) Mean / Sample B (1,3-propanediol) Mean: unit not given here; settings: for Sample B (1,3-propanediol) Mean / Sample A (PG) Mean: PTR-MS headspace, diluted in water, 90 minutes equilibration, mean of three; for Sample B (1,3-propanediol) Mean: watermelon flavor concentrate in 1,3-propanediol; for Sample A (PG) Mean: watermelon flavor concentrate in propylene glycol; for Percent Release Difference: Sample B (1,3-propanediol) relative to Sample A (PG)
Method: The impact of 1,3-propanediol on the release of flavor compounds can be analyzed by Proton Transfer Reaction Mass Spectrometry (PTR-MS; model TOF-8000 from Ionicon Analytik Inc.), where real-time headspace release of volatiles is measured. A sampling apparatus is needed in conjunction with the PTR-MS inlet to prevent variations caused by headspace kinetics. By one exemplary approach, the sampling apparatus includes a 4 ounce sample vessel equipped with a 2-hole lid which may be sealed by an adhesive film to allow equilibration. […]. The holes are equal sized (˜2 mm diameter) and match the outer diameter of the PTR-MS inlet line. The flow of the dilution gas into the vessel is regulated by the vacuum and proportional valve of the PTR-MS inlet system. The sample vessel has a base diameter of 47 mm and is 45 mm high, of which 8 mm of height is occupied by the sample in the vessel in these experiments. The 2 holes in the lid are equidistant from the edge of the vessel (˜20 mm) and about 30 mm from each other. The PTR-MS inlet is braced by clamps in a fixed position vertically above the laboratory bench (˜55 mm) and a silicone rubber depth gauge is affixed to the PTR-MS inlet tubing and set at 18 mm. The PTR-MS inlet is thus consistently oriented in a vertical position 18 mm below the inside lid of the vessel and 19 mm above the sample in the vessel. The sample vessel is then held in place during sampling according to the depth gauge on the inlet line and the vessel is subsequently supported on the bench by a 10 mm plastic spacer.
15 grams of the sample to be tested (e.g., food or beverage product containing 1,3-propanediol) are added to the vessel. The vessel is sealed and allowed to equilibrate at room temperature (˜22° C.) for 90 minutes. At the time of sampling, the seal is removed from both the sampling hole and the dilution gas hole in the lid and the vessel is immediately affixed to the PTR-MS inlet via the sampling hole. The real-time released flavor is measured from the headspace of the sample vessel for two minutes (according to the conditions listed in Table 1 below). A comparative sample is prepared that is otherwise identical to the test sample but contains propylene glycol or water instead of 1,3-propanediol. The comparative sample is then analyzed in triplicate by PTR-MS using the above-described procedure. The data can be analyzed using PTR-MS Viewer, Version 3.0.0.101 (Ionicon Analytik G.m.b.H). The point of maximum intensity for each compound of interest can be determined and recorded according to the PTR-MS Viewer software. The maximum intensity in counts over the timescale for each compound of interest can be used for data analysis as it reflects the static equilibrium headspace concentration in the system at the moment of seal removal. Due to the necessity of a dilution gas, the volatile concentration decreases over time as the compounds of interest re-equilibrate to a state of dynamic equilibrium in the headspace.
[…]. Sample A was prepared with 20 grams watermelon flavor concentrate and 80 grams propylene glycol. Sample B was prepared with 20 grams watermelon flavor concentrate and 80 grams 1,3-propanediol. Each of the samples was further diluted by adding 0.08 grams of each diluted concentrate to 99.92 grams water to provide a flavor water solution.
The diluted samples were analyzed by Proton Transfer Reaction Mass Spectrometry (PTR-MS; model TOF-8000 from Ionicon Analytik Inc.) for real-time headspace release volatiles measurement. Samples were analyzed in triplicate. […]. […].

[2] = PTR-MS headspace release at various flavor compound to 1,3-propanediol or PG ratios (Example 2); settings: for effect of 1,3-propanediol on release: flavor/1,3-propanediol ratio of 0.05:100; for Percent Suppression by 1,3-propanediol: (IZ−IPG)/IPG×100; for release suppressed in the presence of 1,3-propanediol: 10% cut-off for significant difference, relative to PG
Method: The compounds listed below in Table 3 were added together to provide a liquid flavoring to analyze the role, if any, of the amount of 1,3-propanediol on flavor release. […] The amount of each flavor compound in the beverage was held constant at 8 ppm except furfuryl mercaptan was included at 1.6 ppm while the amount of propylene glycol or 1,3-propanediol varied.
The percent suppression was calculated using the following formula: (IZ−IPG)/IPG×100, where I is peak height, “Z” is 1,3-propanediol and “PG” is propylene glycol.

[3] = PTR-MS headspace release with various non-aqueous liquids (diols) at 0.05:100 (Example 3); settings: ratio 0.05:100; for PTR-MS headspace release in 1,3-butanediol: non-aqueous liquid 1,3-butanediol; for PTR-MS headspace release in 1,3-butanediol / PTR-MS headspace release in 1,3-propanediol / PTR-MS headspace release in 1,4-butanediol / PTR-MS headspace release in 1,7-heptanediol / PTR-MS headspace release in Propylene glycol: diluted in water; for PTR-MS headspace release in 1,3-propanediol: non-aqueous liquid 1,3-propanediol; for PTR-MS headspace release in 1,4-butanediol: non-aqueous liquid 1,4-butanediol; for PTR-MS headspace release in 1,7-heptanediol: non-aqueous liquid 1,7-heptanediol; for PTR-MS headspace release in Propylene glycol: non-aqueous liquid propylene glycol
Method: […]. The flavoring was then diluted in water for analysis. The final concentration of each compound was held constant at 8 ppm except furfuryl mercaptan was included at 1.6 ppm to maintain a constant flavor level in the resulting beverage while the non-aqueous liquid varied but the ratio of each compound to non-aqueous liquid was held constant at 0.05:100. A variety of non-aqueous liquids were evaluated, including 1,4-butandiol; 1,7-heptandiol; 1,3-butandiol, propylene glycol, and 1,3-propanediol.
Samples were analyzed by PTR-MS as described in Example 1.
Percent suppression was calculated by the following formula: (I1-3-diol−Ialternate diol)/Ialternate diol×100.

[4] = PTR-MS headspace release in neat solvent, solvent/solvent experiment (Example 5); set-up: key to Release Differences: “Z” indicates that 1,3-propanediol had higher equilibrium maximum (meaning more of the flavor was released in 1,3-propanediol); “P” indicates that propylene glycol had higher equilibrium maximum; “-” indicates no statistical difference (95% significance) between the two samples; settings: 1.5 hrs equilibration
Method: […]. Then the head space was analyzed as described above.
0.86 grams of the concentrate was added to 100 grams of either propylene glycol or 1,3-propanediol to provide a 1,3-propanediol diluted concentrate or propylene glycol diluted concentrate. The diluted concentrates were then further diluted as outlined in Table 10 below.
A 15 gram sample was weighed into a 4 oz vessel and analyzed at 1.5 hrs. of equilibration time as described in the method of Example 4.

[5] = ratio 0.005:100, negative = suppressed vs PG

CCOC(C)=O [Ethyl acetate]
Sample B (1,3-propanediol) Mean [1]: 1410 | Sample A (PG) Mean [1]: 1797 | Percent Release Difference [1]: −21.5%

CCCC(=O)O [Butyric acid]
effect of 1,3-propanediol on release [2]: minimal effect | Percent Suppression by 1,3-propanediol [2, 5]: 7.5% | Percent Suppression by 1,3-propanediol ([2]; ratio 0.05:100): 8.0% | Percent Suppression by 1,3-propanediol ([2]; ratio 5:100): −18.4% | Percent Suppression by 1,3-propanediol ([2]; ratio 15:100): −6.0% | PTR-MS headspace release in 1,3-butanediol [3]: 91.7 | PTR-MS headspace release in 1,3-propanediol [3]: 30.25 | PTR-MS headspace release in 1,4-butanediol [3]: 143.8 | PTR-MS headspace release in 1,7-heptanediol [3]: 140.0 | PTR-MS headspace release in Propylene glycol [3]: 28.00 | Percent suppression by 1,3-butanediol relative to 1,4-butanediol [3]: −56.8%

CCCCCCCCCC(=O)O [Decanoic acid]
effect of 1,3-propanediol on release [2]: minimal effect | PTR-MS headspace release in 1,3-butanediol [3]: 0.6 | PTR-MS headspace release in 1,3-propanediol [3]: 0.20 | PTR-MS headspace release in 1,4-butanediol [3]: 1.4 | PTR-MS headspace release in 1,7-heptanediol [3]: 1.0 | PTR-MS headspace release in Propylene glycol [3]: 0.25

CCO [Ethanol]
Sample B (1,3-propanediol) Mean [1]: 24.50 | Sample A (PG) Mean [1]: 22.17 | Percent Release Difference [1]: 10.5% | release suppressed in the presence of 1,3-propanediol [2]: suppressed | effect of 1,3-propanediol on release [2]: significant suppression effect | Percent Suppression by 1,3-propanediol [2, 5]: 11.9% | Percent Suppression by 1,3-propanediol ([2]; ratio 0.05:100): −34.8% | Percent Suppression by 1,3-propanediol ([2]; ratio 5:100): −12.1% | Percent Suppression by 1,3-propanediol ([2]; ratio 15:100): −0.9% | PTR-MS headspace release in 1,3-butanediol [3]: 20.7 | PTR-MS headspace release in 1,3-propanediol [3]: 18.60 | PTR-MS headspace release in 1,4-butanediol [3]: 27.5 | PTR-MS headspace release in 1,7-heptanediol [3]: 24.5 | PTR-MS headspace release in Propylene glycol [3]: 28.52

COc1cc(C=O)ccc1O [Vanillin]
Sample B (1,3-propanediol) Mean [1]: 0.05 | Sample A (PG) Mean [1]: 0.05 | Percent Release Difference [1]: 3.4%

CCC/C=C/C(=O)O [Trans-2-hexenoic acid]
Sample B (1,3-propanediol) Mean [1]: 0.86 | Sample A (PG) Mean [1]: 1.06 | Percent Release Difference [1]: −18.3%

CCC(C)COC(C)=O (centres unmarked) [2-methylbutyl acetate]
Sample B (1,3-propanediol) Mean [1]: 4.27 | Sample A (PG) Mean [1]: 5.30 | Percent Release Difference [1]: −19.5%

CCCCCCC(C=O)=Cc1ccccc1 [Hexyl cinnamic aldehyde]
Sample B (1,3-propanediol) Mean [1]: 1.32 | Sample A (PG) Mean [1]: 0.95 | Percent Release Difference [1]: 38.8%

CC(=O)CCc1ccc(O)cc1 [Raspberry ketone]
Sample B (1,3-propanediol) Mean [1]: 0.04 | Sample A (PG) Mean [1]: 0.07 | Percent Release Difference [1]: −48.1%

O=CCc1ccccc1 [Phenyl acetaldehyde]
Sample B (1,3-propanediol) Mean [1]: 0.78 | Sample A (PG) Mean [1]: 0.80 | Percent Release Difference [1]: −2.5%

C/C=C\C(=O)C1C(C)=CCCC1(C)C (stereo not drawn) [Alpha damascone]
Sample B (1,3-propanediol) Mean [1]: 0.57 | Sample A (PG) Mean [1]: 0.82 | Percent Release Difference [1]: −30.6%

OCCCO [1,3-propanediol]
flavor retention compared to use of propylene glycol ([1]; watermelon flavor model, Table 2): generally resulted in increased flavor retention

CCc1occc(=O)c1O [Ethyl maltol]
Sample B (1,3-propanediol) Mean [1]: 1.25 | Sample A (PG) Mean [1]: 1.25 | Percent Release Difference [1]: 0.0%

CC(C)CC=O [Isovaleraldehyde]
Percent Suppression by 1,3-propanediol [2, 5]: 3.7% | Percent Suppression by 1,3-propanediol ([2]; ratio 0.05:100): −1.3% | Percent Suppression by 1,3-propanediol ([2]; ratio 5:100): −22.2% | Percent Suppression by 1,3-propanediol ([2]; ratio 15:100): −2.6% | PTR-MS headspace release in 1,3-butanediol [3]: 40.9 | PTR-MS headspace release in 1,3-propanediol [3]: 12.35 | PTR-MS headspace release in 1,4-butanediol [3]: 62.5 | PTR-MS headspace release in 1,7-heptanediol [3]: 63.5 | PTR-MS headspace release in Propylene glycol [3]: 12.51 | Percent suppression by 1,3-butanediol relative to 1,4-butanediol [3]: −53.0%

CCCCCCO [Hexanol]
Release Differences ([4]; 1,3-propanediol versus propylene glycol as sole solvent, 95% significance): Z | release in 1,3-propanediol versus propylene glycol, solvent/solvent [4]: released faster in 1,3-propanediol | release suppressed in the presence of 1,3-propanediol [2]: suppressed | Percent Suppression by 1,3-propanediol [2, 5]: −3.6% | Percent Suppression by 1,3-propanediol ([2]; ratio 0.05:100): −45.9% | Percent Suppression by 1,3-propanediol ([2]; ratio 5:100): −9.8% | Percent Suppression by 1,3-propanediol ([2]; ratio 15:100): −20.0% | PTR-MS headspace release in 1,3-butanediol [3]: 0.3 | PTR-MS headspace release in 1,3-propanediol [3]: 0.20 | PTR-MS headspace release in 1,4-butanediol [3]: 0.5 | PTR-MS headspace release in 1,7-heptanediol [3]: 0.3 | PTR-MS headspace release in Propylene glycol [3]: 0.37 | Percent suppression by 1,3-butanediol relative to 1,4-butanediol [3]: −50.0%

CC(C=O)Cc1ccc(C(C)C)cc1 (centres unmarked) [Cyclamen aldehyde]
Sample B (1,3-propanediol) Mean [1]: 0.36 | Sample A (PG) Mean [1]: 0.40 | Percent Release Difference [1]: −10.0%

OCCCCCCCO [1,7-heptandiol, reference compound]
flavor release with the non-aqueous liquid relative to comparative diol [3]: faster release than propylene glycol

Reference: patent US9883691B2, “Food and beverage products containing 1,3-propanediol and methods of modifying flavor release using 1,3-propanediol” (Kraft Foods Group Brands LLC, priority 2012, dated 2018)
